Experimental data taken from US7846935B2, “Furo[3,2-B]pyrrol-3-one derivatives and their use as cysteinyl proteinase inhibitors” (Amura Therapeutics Limited, priority 2006, dated 2010).

Columns and labels:
[1] = Liver microsomal incubations; type: in vitro ADME; settings: human liver microsomes, 25 μM, NADPH
Protocol: All liver microsome incubations were carried out in 50 mM potassium phosphate buffer at pH 7.4, with a final microsomal protein concentration of 0.5 mg/mL. […] In brief, compounds were added to the incubation buffer along with the liver microsomes and incubated at 37° C. for 10 minutes. The reaction was then initiated by the addition of NADPH, previously dissolved in incubation buffer, to give a final concentration of 1 mM and re-incubated at 37° C. Aliquots were removed at 2 and 60 minutes and quenched with an equal volume of cold acetonitrile. After mixing vigorously, the precipitated protein matter was removed by filtration (Multiscreen Solvinert filter plates, Millipore, Bedford, Mass., USA) and the filtrate analysed by reverse phase HPLC with mass spectrometric detection, using single ion monitoring of the [M+H]^+ species. Metabolic turnover was determined by comparison of peak areas from the ion chromatograms of the parent compound at 2 and 60 minutes and expressed as percent remaining at 1 hour.

human osteoclasts = settings: human osteoclast, literature value; cited from earlier work
Plasma incubations = type: in vitro ADME; settings: 37° C., 25 μM
Protocol: Aliquots were removed at 2 and 60 minutes and quenched with an equal volume of cold acetonitrile. After mixing vigorously, the precipitated protein matter was removed by filtration (Multiscreen Solvinert filter plates, Millipore, Bedford, Mass., USA) and the filtrate analysed by reverse phase HPLC with mass spectrometric detection, using single ion monitoring of the [M+H]^+ species. Metabolic turnover was determined by comparison of peak areas from the ion chromatograms of the parent compound at 2 and 60 minutes and expressed as percent remaining at 1 hour.

## CC(C)C[C@H](NC(=O)c1ccc(C(C)(C)C)cc1)C(=O)N1CC[C@H]2OCC(=O)[C@H]21 [prior art compound 23, reference compound]
[1]
  HLM % rem. @ 1 h: 70%
Human osteoclasts
  Cell-based % Inh. @ 1 μM Human (Lit.): Lit. 60%
Plasma incubations
  Human Plasma Stability % rem. @ 1 h: 75%
